pIC50: −log10 of the molar value.
System: U937 cells
Experiment: Inhibitory activity against programmed necroptosis of U937 cells induced by TNF-α and Q-VD-Oph (CellTiter-Glo)
Type: cell-based
Conditions: Celltiter-Glo survival rate
Description: The U937 cell strain which was used in the following Testing Examples was derived from ATCC, No.: CRL-1593.2, batch No.: 63479999, culture medium: RPMI-1640+10% FBS.
The compound to be tested was dissolved in DMSO, and diluted with DMSO to a series of gradient concentrations. The U937 cells were inoculated in a 384-well plate at 5000/well. The compound at respective concentration was added to each of the wells, and was mixed with the cells homogeneously. Human TNF-α and Q-VD-Oph were added simultaneously to induce programmed necroptosis of the cells. The cells were placed in the incubator at 37° C. and 5% CO2 for further culture of 48 h. Celltiter-Glo reagent was used for detection. After adequate pyrolysis reaction, the chemiluminescence readout value was recorded by a microplate reader. The survival rate was calculated from the detection results using the equation as follows: SR (%)=(RLU compound−RLU blank)/(RLU high control−RLU blank)×100%. The survival rate was plotted against the final concentration of respective compound using a 4-parameter fitting to calculate the inhibitory C50 of the compound against programmed necroptosis of cells induced by TNF-α.

[1] = human TNF-α + Q-VD-Oph induced necroptosis, 48 h

SMILES | pIC50 [1] | pIC50 (Homo sapiens, U-937, 48 h)
NC(=O)c1cc(N2CCC(C(=O)N3N=CCC3c3cc(F)ccc3F)C3(CC3)C2)ncn1 (racemic) [Compound Z-53-1, 6-(8-(5-(2,5-difluorophenyl)-4,5-dihydro-1H-pyrazole-1-carbonyl)-5-aza-spiro[2.5]oct-5-yl)pyrimidine-4-carboxamide] | 7.59 | –
NC(=O)c1ccnc(N2CCC(C(=O)N3N=CCC3c3cc(F)cc(F)c3)C3(CC3)C2)n1 (racemic) [Compound Z-46-1, 2-(8-(5-(3,5-difluorophenyl)-4,5-dihydro-1H-pyrazole-1-carbonyl)-5-aza-spiro[2.5]oct-5-yl)pyrimidine-4-carboxamide] | – | 8.40
N#Cc1cc(N2CCC(C(=O)N3N=CCC3c3cc(F)cc(F)c3)CC23CC3)ncn1 (stereo not shown) [Compound Z-62, 6-(7-(5-(3,5-difluorophenyl)-4,5-dihydro-1H-pyrazole-1-carbonyl)-4-aza-spiro[2.5]oct-4-yl)pyrimidine-4-carbonitrile] | – | 8.15
N#Cc1cc(N2CCC(C(=O)N3N=CCC3c3cncc(F)c3)CC23CC3)ncn1 (stereo not shown) [Compound Z-65, 6-(7-(5-(5-fluoropyridin-3-yl)-4,5-dihydro-1H-pyrazole-1-carbonyl)-4-aza-spiro[2.5]oct-4-yl)pyrimidine-4-carbonitrile] | – | 7.28
CN(C)C(=O)c1cc(N2CC[C@H](C(=O)N3N=CC[C@H]3c3cc(F)cc(F)c3)CC23CC3)ncn1 (racemic) [Compound Z-69, 6-((S)-7-((S)-5-(3,5-difluorophenyl)-4,5-dihydro-1H-pyrazole-1-carbonyl)-4-aza-spiro[2.5]oct-4-yl)-N,N-dimethylpyrimidine-4-carboxamide] | – | 6.90
NC(=O)c1cc(N2CCC(C(=O)N3N=CCC3c3cc(F)cc(F)c3)CC23CC3)ncn1 (stereo not shown) [Compound Z-66, 6-(7-(5-(3,5-difluorophenyl)-4,5-dihydro-1H-pyrazole-1-carbonyl)-4-aza-spiro[2.5]oct-4-yl)pyrimidine-4-carboxamide] | 7.70 | –
N#Cc1cc(N2CC3CCC(C2)C3C(=O)N2N=CCC2c2ccccc2)ncn1 (single isomer, unassigned) [Compound Z-2, 6-(8-(5-phenyl-4,5-dihydro-1H-pyrazole-1-carbonyl)-3-azabicyclo[3.2.1]oct-3-yl)pyrimidine-4-carbonitrile] | 6.81 | –
Cc1nnc(N2CCC(C(=O)N3N=CCC3c3cncc(F)c3)C3(CC3)C2)o1 (stereo not shown) [Compound Z-68, (5-(5-fluoropyridin-3-yl)-4,5-dihydro-1H-pyrazol-1-yl)(5-(5-methyl-1,3,4-oxadizol-2-yl)-5-aza-spiro[2.5]oct-8-yl) methanone] | 6.44 | –
NC(=O)c1cc(N2CCC(C(=O)N3N=CCC3c3cc(F)cc(F)c3)CC23CC3)ncn1 (stereo not shown) [Compound Z-64-1, 6-(7-(5-(3,5-difluorophenyl)-4,5-dihydro-1H-pyrazole-1-carbonyl)-4-aza-spiro[2.5]oct-4-yl)pyrimidine-4-carboxamide] | 8.22 | –
NC(=O)c1cc(N2CCC(C(=O)N3N=CCC3c3cc(F)cc(F)c3)C3(CC3)C2)ncn1 (racemic) [Compound Z-44-2, 6-(8-(5-(3,5-difluorophenyl)-4,5-dihydro-1H-pyrazole-1-carbonyl)-5-aza-spiro[2.5]oct-5-yl)pyrimidine-4-carboxamide] | – | 7.66
NC(=O)c1cc(N2CCC(C(=O)N3N=CCC3c3cncc(F)c3)C3(CC3)C2)ncn1 (racemic) [Compound Z-49-1, 6-(8-(5-(5-fluoropyridin-3-yl)-4,5-dihydro-1H-pyrazole-1-carbonyl)-5-aza-spiro[2.5]oct-5-yl)pyrimidine-4-carboxamide] | – | 6.55
N#Cc1cc(N2CCC(C(=O)N3N=CCC3c3ccccc3)C3(CC3)C2)ncn1 (racemic) [Compound Z-60-2, 6-(8-(5-phenyl-4,5-dihydro-1H-pyrazole-1-carbonyl)-5-aza-spiro[2.5]oct-5-yl)pyrimidine-4-carbonitrile] | – | 8.15
Nc1nc(N2C[C@H]3C[C@@H](C(=O)N4N=CC[C@@H]4c4ccccc4)C[C@H]3C2)ncc1F (single isomer, unassigned) [Compound Z-39-4] | 7.06 | –
N#Cc1cc(N2CCC(C(=O)N3N=CCC3c3cncc(F)c3)C3(CC3)C2)ncn1 (racemic) [Compound Z-48-2, 6-(8-(5-(5-fluoropyridin-3-yl)-4,5-dihydro-1H-pyrazole-1-carbonyl)-5-aza-spiro[2.5]oct-5-yl)pyrimidine-4-carbonitrile] | 6.44 | –
NC(=O)c1cc(N2CCC(C(=O)N3N=CCC3c3cc(F)cc(F)c3)CC23CC3)ncn1 (racemic) [Compound Z-64-a, 6-(7-(5-(3,5-difluorophenyl)-4,5-dihydro-1H-pyrazole-1-carbonyl)-4-aza-spiro[2.5]oct-4-yl)pyrimidine-4-carboxamide] | – | 8.00
NC(=O)c1ccnc(N2CC3CC(C(=O)N4N=CCC4c4cc(F)ccc4F)CC3C2)n1 (stereo not shown) [Compound Z-22, 2-(5-(5-(2,5-difluorophenyl)-4,5-dihydro-1H-pyrazole-1-carbonyl)hexahydrocyclopenta [c]pyrrol-2(1H)-yl)pyrimidine-4-carboxamide] | – | 7.15

SMILES | pIC50 [1] | pIC50 (Homo sapiens, U-937, 48 h)
N#Cc1ccnc(N2CC3CC(C(=O)N4N=CCC4c4cc(F)cc(F)c4)CC3C2)n1 (stereo not shown) [Compound Z-32, 2-(5-(5-(3,5-difluorophenyl)-4,5-dihydro-1H-pyrazole-1-carbonyl)hexahydrocyclopenta [c]pyrrol-2(1H)-yl)pyrimidine-4-carbonitrile] | – | 7.22
Cc1nnc(N2CCC(C(=O)N3N=CCC3c3cc(F)cc(F)c3)C3(CC3)C2)o1 (stereo not shown) [Compound Z-63-a, (5-(3,5-difluorophenyl)-4,5-dihydro-1H-pyrazol-1-yl)(5-(5-methyl-1,3,4-oxadizol-2-yl)-5-aza-spiro[2.5]octane-8-yl) ketone] | 7.49 | –
N#Cc1cc(N2CCC(C(=O)N3CCC(c4cc(F)cc(F)c4)=N3)C3(CC3)C2)ncn1 (racemic) [Compound Z-26, 6-(8-(3-(3,5-difluorophenyl)-4,5-dihydro-1H-pyrazole-1-carbonyl)-5-aza-spiro[2.5]oct-5-yl)pyrimidine-4-carbonitrile] | 6.61 | –
N#Cc1cc(N2CCC(C(=O)N3N=CCC3c3cncc(F)c3)C3(CC3)C2)ncn1 (racemic) [Compound Z-48-1, 6-(8-(5-(5-fluoropyridin-3-yl)-4,5-dihydro-1H-pyrazole-1-carbonyl)-5-aza-spiro[2.5]oct-5-yl)pyrimidine-4-carbonitrile] | 7.52 | –
N#Cc1cc(N2CC[C@@H](C(=O)N3N=CC[C@@H]3c3cncc(F)c3)CC23CC3)ncn1 (single isomer, unassigned) [Compound Z-65-4] | – | 7.85
N#Cc1cc(N2CCC(C(=O)N3N=CCC3c3cc(F)ccc3F)C3(CC3)C2)ncn1 (racemic) [Compound Z-52-2, 6-(8-(5-(2,5-difluorophenyl)-4,5-dihydro-1H-pyrazole-1-carbonyl)-5-aza-spiro[2.5]oct-5-yl)pyrimidine-4-carbonitrile] | 7.39 | –
Cc1nnc(N2CCC(C(=O)N3N=CCC3c3cc(F)cc(F)c3)C3(CC3)C2)o1 (stereo not shown) [Compound Z-61, (5-(3,5-difluorophenyl)-4,5-dihydro-1H-pyrazol-1-yl)(5-(5-methyl-1,3,4-oxadizol-2-yl)-5-aza-spiro[2.5]octane-8-yl) ketone] | 7.28 | –
COc1cc(N2CCC(C(=O)N3N=CCC3c3ccccc3)C3(CC3)C2)ncn1 (racemic) [Compound Z-40-1, (5-(6-methoxypyrimidin-4-yl)-5-aza-spiro[2.5]oct-8-yl)(5-phenyl-4,5-dihydro-1H-pyrazol-1-yl) ketone] | – | 8.05
NC(=O)c1ccnc(N2C[C@H]3C[C@H](C(=O)N4N=CC[C@@H]4c4cc(F)ccc4F)C[C@H]3C2)n1 (single isomer, unassigned) [Compound Z-22-2] | – | 7.32
Nc1nc(N2CC3CC(C(=O)N4N=CCC4c4cc(F)cc(F)c4)CC3C2)ncc1F (stereo not shown) [Compound Z-23, (2-(4-amino-5-fluoropyrimidin-2-yl)octahydrocyclopenta[c]pyrrol-5-yl)(5-(3,5-difluorophenyl)-4,5-dihydro-1H-pyrazol-1-yl) ketone] | – | 7.28
N#Cc1ccnc(N2CC3CC(C(=O)N4N=CCC4c4cc(F)ccc4F)CC3C2)n1 (stereo not shown) [Compound Z-24, 2-(5-(5-(2,5-difluorophenyl)-4,5-dihydro-1H-pyrazole-1-carbonyl)hexahydrocyclopenta[c]pyrrol-2(1H)-yl)pyrimidine-4-carbonitrile] | – | 6.74
NC(=O)c1cc(N2CCC(C(=O)N3N=CCC3c3ccccc3)C3(CC3)C2)ncn1 (racemic) [Compound Z-43-2, 6-(8-(5-phenyl-4,5-dihydro-1H-pyrazole-1-carbonyl)-5-aza-spiro[2.5]oct-5-yl)pyrimidine-4-carboxamide] | – | 7.35
Nc1nc(N2C[C@H]3C[C@@H](C(=O)N4N=CC[C@@H]4c4cc(F)cc(F)c4)C[C@H]3C2)ncc1F (single isomer, unassigned) [Compound Z-23-4] | 7.39 | –
N#Cc1ccnc(N2CC3CC(C(=O)N4N=CCC4c4cncc(F)c4)CC3C2)n1 (stereo not shown) [Compound Z-31, 2-(5-(5-(5-fluoropyridin-3-yl)-4,5-dihydro-1H-pyrazole-1-carbonyl)hexahydrocyclopenta[c]pyrrol-2(1H)-yl)pyrimidine-4-carbonitrile] | – | 6.39
N#Cc1cc(N2C[C@H]3C[C@H](C(=O)N4N=CC[C@@H]4c4cc(F)cc(F)c4)C[C@H]3C2)ncn1 (single isomer, unassigned) [Compound Z-38-2] | 7.57 | –

— patent US20220235032A1 (GENFLEET THERAPEUTICS (SHANGHAI) INC., priority 2019, published 2022)
